Test results from patent US20100298141A1, “SUBSTITUTED PYRIDINE N-OXIDE HERBICIDES” (E. I. DU PONT DE NEMOURS AND COMPANY, priority 2007, published 2010).

What was measured:
corn = assay: Test A pre-/postemergence greenhouse test; type: in vivo, Zea mays; conditions: for Plant response rating, Corn: 0 to 100 scale where 0 is no effect and 100 is complete control; for Corn plant response rating: 0 to 100 scale
Method in brief: (§1)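 Test compounds in non-phytotoxic solvent with surfactant were applied as a preemergence soil spray to seeded loam/sand pots and, concurrently, postemergence to plants at 2–10 cm, one- to two-leaf stage. About ten days in greenhouse, then injury visually rated against untreated controls.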

umbrella sedge = assay: Test C flooded paddy test; type: in vivo, Cyperus difformis; conditions: Flood
Method in brief: (§2)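 Compound was added to standing water 3 cm above soil, flood maintained, and plants held in a greenhouse before visual scoring against controls at 13 to 15 days.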

lambsquarters = assay: Test C pre-/postemergence test; type: in vivo, Chenopodium album
Method in brief: (§3)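 Test chemicals were formulated with surfactant in a non-phytotoxic solvent and sprayed both on freshly planted seeds (preemergence) and on 1- to 4-leaf plants of 2–18 cm (postemergence). Flooded-paddy pots received compound directly into 3 cm of standing water, maintained for the test.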

eastern black nightshade = assay: Test C pre-/postemergence test; type: in vivo, Solanum ptycanthum
Method in brief: as §3

crabgrass = assay: Test C pre-/postemergence test; type: in vivo, Digitaria sanguinalis
Method in brief: as §3

rice = assay: Test C flooded paddy test; type: in vivo, Oryza sativa; conditions: Flood
Method in brief: as §2

redroot pigweed = assay: Test A pre-/postemergence greenhouse test; type: in vivo, Amaranthus retroflexus; conditions: for Plant response rating, Pigweed: 0 to 100 scale where 0 is no effect and 100 is complete control; for Pigweed plant response rating: 0 to 100 scale
Method in brief: as §1

Surinam grass = assay: Test C pre-/postemergence test; type: in vivo, Brachiaria decumbens
Method in brief: as §3

wheat [1] = assay: Test A pre-/postemergence greenhouse test; type: in vivo, Triticum aestivum; conditions: for Plant response rating, Wheat: 0 to 100 scale where 0 is no effect and 100 is complete control; for Wheat plant response rating: 0 to 100 scale
Method in brief: as §1

[2] = test system: common (oilseed) sunflower; assay: Test C pre-/postemergence test; type: in vivo, Helianthus annuus
Method in brief: as §3

bermudagrass = assay: Test C pre-/postemergence test; type: in vivo, Cynodon dactylon
Method in brief: as §3

morningglory = assay: Test A pre-/postemergence greenhouse test; type: in vivo, Ipomoea spp.; conditions: for Plant response rating, Morningglory: 0 to 100 scale where 0 is no effect and 100 is complete control; for Morningglory plant response rating: 0 to 100 scale
Method in brief: as §1

giant foxtail = assay: Test A pre-/postemergence greenhouse test; type: in vivo, Setaria faberi; conditions: for Plant response rating, Foxtail, Giant: 0 to 100 scale where 0 is no effect and 100 is complete control; for Foxtail, Giant plant response rating: 0 to 100 scale
Method in brief: as §1

Goosegrass = assay: Test C pre-/postemergence test; type: in vivo, Eleusin indica
Method in brief: as §3

barnyardgrass = assay: Test A pre-/postemergence greenhouse test; type: in vivo, Echinochloa crus-galli; conditions: for Plant response rating, Barnyardgrass: 0 to 100 scale where 0 is no effect and 100 is complete control; for Barnyardgrass plant response rating: 0 to 100 scale
Method in brief: as §1

wheat [3] = assay: Test C pre-/postemergence test; type: in vivo, Triticum aestivum
Method in brief: as §3

pigweed = assay: Test C pre-/postemergence test; type: in vivo, Amaranthus retroflexus
Method in brief: as §3

[4] = Postemergence, 500 g ai/ha, 0 is no effect, 100 is complete control
[5] = Preemergence, 125 g ai/ha, 0 no effect, 100 complete control
[6] = 62 g ai/ha, scale 0 to 100 (0 no effect, 100 complete control)
[7] = 250 g ai/ha, scale 0 to 100, 0 no effect, 100 complete control, 13 to 15 days
[8] = 62 g ai/ha, Preemergence, scale 0 to 100
[9] = 125 g ai/ha, preemergence, scale 0 (no effect) to 100 (complete control)
[10] = Preemergence, 31 g ai/ha, scale 0 to 100 (0 no effect, 100 complete control)
[11] = preemergence, 250 g ai/ha, scale 0 (no effect) to 100 (complete control)

Question: For `CCc1cc[n+]([O-])c([S+]([O-])Cc2c(C(F)(F)F)nn(C)c2OCC(F)(F)F)c1` (centres unmarked) [Compound 59], which “Plant response rating, Corn” value (corn; Postemergence, 125 g ai/ha) is on record?
Answer: 50

Question: And the “Corn plant response rating” value (corn; [4])?
Answer: 70

Question: And the “Corn plant response rating” value (corn; [5])?
Answer: 20

Question: And the “Plant response rating, Corn” value (corn; Preemergence, 500 g ai/ha)?
Answer: 90

Question: And the “Plant response rating, Sedge, Umbrella” value (umbrella sedge; [6])?
Answer: 80

Question: What about the “Plant response rating, Sedge, Umbrella” value (umbrella sedge; [7]) of the same compound?
Answer: 100

Question: And the “Lambsquarters plant response rating” value (lambsquarters; [8])?
Answer: 100

Question: What about the “Lambsquarters plant response rating” value (lambsquarters; [9]) of the same compound?
Answer: 100

Question: What about the “Plant response rating, Lambsquarters” value (lambsquarters; [10]) of the same compound?
Answer: 80

Question: And the “Lambsquarters plant response rating” value (lambsquarters; [11])?
Answer: 100

Question: And the “Nightshade plant response rating” value (eastern black nightshade; [8])?
Answer: 85

Question: And the “Nightshade plant response rating” value (eastern black nightshade; [11])?
Answer: 85

Question: What about the “Crabgrass, Large plant response rating” value (crabgrass; [8]) of the same compound?
Answer: 80

Question: What about the “Crabgrass, Large plant response rating” value (crabgrass; [9]) of the same compound?
Answer: 100

Question: And the “Plant response rating, Crabgrass, Large” value (crabgrass; [10])?
Answer: 70

Question: What about the “Crabgrass, Large plant response rating” value (crabgrass; [11]) of the same compound?
Answer: 100

Question: What about the “Plant response rating, Rice” value (rice; [6]) of the same compound?
Answer: 10

Question: And the “Plant response rating, Rice” value (rice; [7])?
Answer: 70

Question: What about the “Plant response rating, Pigweed” value (redroot pigweed; Postemergence, 125 g ai/ha) of the same compound?
Answer: 60

Question: And the “Pigweed plant response rating” value (redroot pigweed; [4])?
Answer: 90

Question: And the “Pigweed plant response rating” value (redroot pigweed; [5])?
Answer: 100

Question: What about the “Plant response rating, Pigweed” value (redroot pigweed; Preemergence, 500 g ai/ha) of the same compound?
Answer: 100

Question: What about the “Surinam Grass plant response rating” value (Surinam grass; [8]) of the same compound?
Answer: 80

Question: What about the “Surinam Grass plant response rating” value (Surinam grass; [9]) of the same compound?
Answer: 100

Question: What about the “Plant response rating, Surinam Grass” value (Surinam grass; [10]) of the same compound?
Answer: 40

Question: And the “Surinam Grass plant response rating” value (Surinam grass; [11])?
Answer: 100

Question: What about the “Plant response rating, Wheat” value (wheat [1]; Postemergence, 125 g ai/ha) of the same compound?
Answer: 60

Question: And the “Wheat plant response rating” value (wheat [1]; [4])?
Answer: 70

Question: What about the “Wheat plant response rating” value (wheat [1]; [5]) of the same compound?
Answer: 60

Question: And the “Plant response rating, Wheat” value (wheat [1]; Preemergence, 500 g ai/ha)?
Answer: 90

Question: And the “Sunflower plant response rating” value [2, 8]?
Answer: 85

Question: And the “Sunflower plant response rating” value [2, 9]?
Answer: 85

Question: What about the “Plant response rating, Sunflower” value [2, 10] of the same compound?
Answer: 40

Question: And the “Sunflower plant response rating” value [2, 11]?
Answer: 100

Question: And the “Bermudagrass plant response rating” value (bermudagrass; 62 g ai/ha, Preemergence, scale 0 to 100 (0 no effect, 100 complete control))?
Answer: 100

Question: And the “Bermudagrass plant response rating” value (bermudagrass; [9])?
Answer: 100

Question: What about the “Plant response rating, Bermudagrass” value (bermudagrass; [10]) of the same compound?
Answer: 70

Question: And the “Bermudagrass plant response rating” value (bermudagrass; [11])?
Answer: 100

Question: What about the “Plant response rating, Morningglory” value (morningglory; Postemergence, 125 g ai/ha) of the same compound?
Answer: 50

Question: What about the “Morningglory plant response rating” value (morningglory; [4]) of the same compound?
Answer: 90

Question: And the “Morningglory plant response rating” value (morningglory; [5])?
Answer: 70

Question: And the “Plant response rating, Morningglory” value (morningglory; Preemergence, 500 g ai/ha)?
Answer: 100

Question: What about the “Plant response rating, Foxtail, Giant” value (giant foxtail; Postemergence, 125 g ai/ha) of the same compound?
Answer: 60

Question: What about the “Foxtail, Giant plant response rating” value (giant foxtail; [4]) of the same compound?
Answer: 90

Question: And the “Foxtail, Giant plant response rating” value (giant foxtail; [5])?
Answer: 100

Question: And the “Plant response rating, Foxtail, Giant” value (giant foxtail; Preemergence, 500 g ai/ha)?
Answer: 100

Question: What about the “Goosegrass plant response rating” value (Goosegrass; [8]) of the same compound?
Answer: 100

Question: And the “Goosegrass plant response rating” value (Goosegrass; [9])?
Answer: 100

Question: And the “Plant response rating, Goosegrass” value (Goosegrass; [10])?
Answer: 100

Question: What about the “Goosegrass plant response rating” value (Goosegrass; [11]) of the same compound?
Answer: 100

Question: What about the “Plant response rating, Barnyardgrass” value (barnyardgrass; Postemergence, 125 g ai/ha) of the same compound?
Answer: 80

Question: And the “Barnyardgrass plant response rating” value (barnyardgrass; [4])?
Answer: 90

Question: What about the “Barnyardgrass plant response rating” value (barnyardgrass; [5]) of the same compound?
Answer: 100

Question: What about the “Plant response rating, Barnyardgrass” value (barnyardgrass; Preemergence, 500 g ai/ha) of the same compound?
Answer: 100

Question: What about the “Wheat plant response rating” value (wheat [3]; [8]) of the same compound?
Answer: 40

Question: What about the “Wheat plant response rating” value (wheat [3]; [9]) of the same compound?
Answer: 85

Question: And the “Plant response rating, Wheat” value (wheat [3]; [10])?
Answer: 30

Question: And the “Wheat plant response rating” value (wheat [3]; [11])?
Answer: 95

Question: What about the “Pigweed plant response rating” value (pigweed; [8]) of the same compound?
Answer: 100

Question: And the “Pigweed plant response rating” value (pigweed; [9])?
Answer: 100

Question: What about the “Plant response rating, Pigweed” value (pigweed; [10]) of the same compound?
Answer: 0

Question: What about the “Pigweed plant response rating” value (pigweed; [11]) of the same compound?
Answer: 100
